# Measured values from PMC4246079, “Structure and Mechanism of the Bifunctional CinA Enzyme from Thermus thermophilus” (The Journal of Biological Chemistry, 2014).
# Experiments:
# TtCinA [1] = target: T1, TtCinA (Thermus thermophilus, UniProt Q5SHB0); assay: X-ray crystal structure ([…] Å; crystal soak); assay type: binding; conditions: ADPR site of COG1058 domain, open site only, weaker density; 5 mM MgCl2, 25 mM ligand (AMP/ribose 5-phosphate), Mg2+ bound
# T1 construct: gene TTHA1820; full-length, N-terminal His6 tag with thrombin site (pET28a, thrombin-treated), expressed in E. coli T7 Express; asymmetric homodimer (~72 kDa by SEC, 86 kDa predicted dimer)
# TtCinA [2] = target: T1, TtCinA; assay: X-ray crystal structure ([…] Å; crystal soak); assay type: binding; conditions: ADPR site of COG1058 domain, both sites; 5 mM MgCl2, 25 mM ligand, Mg2+ bound; no hydrolysis seen
# TtCinA [3] = target: T1, TtCinA; assay: X-ray crystal structure ([…] Å; crystal soaked with NMN); assay type: binding; conditions: NMN deamidase site; built as product NCN by presumption, density could not distinguish NMN from NCN; 5 mM MgCl2, 25 mM NMN soak
# TtCinA [4] = target: T1, TtCinA; assay: X-ray crystal structure ([…] Å; crystal soak); turnover to AMP also seen by HPLC; assay type: binding; conditions: ADPR site of COG1058 domain, both open and closed sites; 5 mM MgCl2, 25 mM ligand, Mg2+ bound; HPLC assay with 1 mM ADP-ribose, 4 mM CoCl2, 100 mM KCl, pH 8.0, 50 °C
# TtCinA [5] = target: T1, TtCinA; assay: reverse-phase HPLC of conversion to NCN; assay type: biochemical; conditions: NMN deamidase; 1 mM NMN, 100 μg enzyme per ml, 25 mM Tris-HCl pH 8.0, 100 mM NaCl, 37 °C, 15 min
# T1 sequence (Q5SHB0 entry or part of it): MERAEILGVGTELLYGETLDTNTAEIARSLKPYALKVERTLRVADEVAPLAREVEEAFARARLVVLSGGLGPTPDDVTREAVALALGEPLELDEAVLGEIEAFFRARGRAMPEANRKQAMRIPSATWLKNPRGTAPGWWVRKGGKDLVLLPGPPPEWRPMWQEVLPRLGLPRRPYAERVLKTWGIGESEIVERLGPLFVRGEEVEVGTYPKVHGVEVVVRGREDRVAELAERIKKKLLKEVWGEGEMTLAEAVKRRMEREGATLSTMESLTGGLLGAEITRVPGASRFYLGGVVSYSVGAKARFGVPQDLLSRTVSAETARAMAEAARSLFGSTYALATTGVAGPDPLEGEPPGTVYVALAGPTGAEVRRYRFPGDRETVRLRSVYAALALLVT
compound,measurement,setting,value
Nc1ncnc2c1ncn2[C@@H]1O[C@H](COP(=O)(O)O)[C@@H](O)[C@H]1O [AMP],X-ray crystal structure (1.98 Å; crystal soak),TtCinA [1],it was possible to model in an AMP molecule in one of the two active sites
Nc1ncnc2c1ncn2[C@@H]1O[C@H](COP(=O)(O)OP(=O)(O)OP(=O)(O)O)[C@@H](O)[C@H]1O [ATP],X-ray crystal structure (2.21 Å; crystal soak),TtCinA [2],ATP binds in a very similar conformation to ADP-ribose
"O=C([O-])c1ccc[n+]([C@@H]2O[C@H](COP(=O)(O)O)[C@@H](O)[C@H]2O)c1 [NCN, nicotinate mononucleotide]",X-ray crystal structure (2.46 Å; crystal soaked with NMN),TtCinA [3],"it was not possible to distinguish NMN from the product, NCN"
Nc1ncnc2c1ncn2[C@@H]1O[C@H](COP(=O)(O)OP(=O)(O)OC[C@H]2OC(O)[C@H](O)[C@@H]2O)[C@@H](O)[C@H]1O (some centres unmarked) [ADP-ribose],X-ray crystal structure (1.99 Å; crystal soak); turnover to AMP also seen by HPL,TtCinA [4],ADP-ribose and ATP data sets produced clear difference density in both catalytic sites
"NC(=O)c1ccc[n+]([C@@H]2O[C@H](COP(=O)([O-])O)[C@@H](O)[C@H]2O)c1 [NMN, nicotinamide mononucleotide]",reverse-phase HPLC of conversion to NCN,TtCinA [5],NMN showed rapid conversion to NCN product in the presence of TtCinA
